Measured values from publication PMC7040082 (Journal of Pharmacokinetics and Pharmacodynamics, 2019).
Several values for one entry are separate records, joined by “and”; a condition that tells them apart may be missing. Equal values may be shown once. Read-outs that look alike come from different tables or passages of the source. Each block holds one compound with its values, some of them ahead of it.

Key:
[1] = dog, in vivo; cited from earlier work
[2] = in vivo; cited from earlier work
[3] = for β (PD scale parameter, first arrival time of drug): constrained to 25-30 s; for AUC for CGPC(t) as percent of dose eliminated, 72h-∞: late-time 72 h to ∞ (drug mass remaining at 72 h); for AUC for CGPC(t) as percent of dose eliminated, 1/3-72h: sample-times 20 min to 72 h
[4] = all samples 20 min to 72 h; ref [1]; cited from earlier work
[5] = cited from earlier work; for urinary metformin recovery: human, at 60 to 72 h
[6] = in vivo; conditions: both, mixed-breed, dog, serum, iv, mean of seven dogs
[7] = Noncompartmental (NC) analysis of IV bolus serum concentrations in dogs
[8] = GPC fit, single IV bolus, individual dogs (Dog 1-7)
[9] = GPC fit, single IV bolus, mean of seven dogs

SMILES: Nc1ccc(C(=O)NCC(=O)O)cc1 [PAH, p-aminohippurate]
CLPAH renal clearance [1]: 13.51 mlmin^-1kg^-1
EPAH arteriovenous extraction ratio [1]: 0.7564
nominal canine EPAH [1]: 75.6%
EPAH in humans [2]: circa 90%

AUC for CGPC(t) as percent of dose eliminated, 0-72h ([3]; 0 to 72 h (model renal excreted), mean of seven dogs): 78.9%
β (PD scale parameter, first arrival time of drug) ([3]; GPC fit, individual dogs (Dog 1-7)): 30 s and 25 s
β (PD scale parameter, first arrival time of drug) ([3]; GPC fit, mean of seven dogs): 26 s
Peak (time at the maximum of the GPC model) [3, 9]: 2.73 min
a (GD shape parameter) [3, 9]: 0.6235
b (GD rate parameter) [3, 9]: 0.8882 per h
α (PD shape parameter) [3, 9]: 0.1778
CL as percent of estimated total renal plasma flow (RPF) ([3]; GPC model mean CL, RPF≈17.86 mlmin^-1kg^-1 from PAH meta-analysis): 84.8%
early concentration peak, total elapsed time ([3]; GPC models, range of seven dogs): 0.66 to 6.17 min
CL as percent of RPF using geometric means ([3]; GPC, GM EPAH of 35 controls): 84.7%
decrease of drug mass in the body from the initial dose ([3]; at 72 h, […] remaining): 5 fold
AUC for CGPC(t) as percent of dose eliminated, 72h-∞ ([3]; mean of seven dogs): 21.1%
decrease of serum concentration from estimated peak concentration ([3]; over 72 h): 1000 fold
AUC for CGPC(t) as percent of dose eliminated, 1/3-72h ([3]; mean of seven dogs): 58.5%
AUC ([6]; AUC, GPC fit, single IV bolus): 23600 ng·h/mL
clearance ([6]; CL GPC, GPC model): 15.1 mL/min/kg
clearance ([6]; CL, GPC fit, single IV bolus): 15.1 mL/min/kg
AUC (E2 fit, single IV bolus, mean of seven dogs): 15.8 mgh/L
p1 (fraction of AUC from first exponential term) (E2 fit, mean of seven dogs): 79.3%
p2 (fraction of AUC from second exponential term) (E2 fit, mean of seven dogs): 20.7%
λ1 (E2 fit, mean of seven dogs): 0.721 h⁻¹
λ2 (E2 fit, mean of seven dogs): 0.0490 h⁻¹
CL as percent of expected RPF (E2 mean CL, RPF≈17.86 mlmin^-1kg^-1): 123.7%
CL E2 (biexponential model, mean of seven dogs): 22.1 mlmin^-1kg^-1
E2 CL-value greater than GPC CL-value (dog 6): 41%
CL as percent of expected RPF ([7]; NC mean CL, RPF≈17.86 mlmin^-1kg^-1): 104.7%
NC CL-value greater than GPC CL-value ([7]; dog 6): 25%
SMILES: CN(C)C(=N)N=C(N)N [metformin, 1,1-dimethylbiguanide]
AUC for CGPC(t) as percent of dose eliminated, 0-72h ([3]; 0 to 72 h, individual dogs 1-7): 91.3% and 71.6% and 84.4% and 79.7% and 67.0% and 82.6% and 75.9%
CL [3, 8]: 11.4 ml/minkg and 14.7 ml/minkg and 9.8 ml/minkg and 11.5 ml/minkg and 26.7 ml/minkg and 19.4 ml/minkg and 12.4 ml/minkg
Peak (time at the maximum of the GPC model) [3, 8]: 1.34 min and 4.85 min and 0.66 min and 6.17 min and 2.21 min and 1.70 min
a (GD shape parameter) [3, 8]: 0.5194 and 0.7629 and 0.3493 and 0.8112 and 0.6689 and 0.6092 and 0.6435
b (GD rate parameter) [3, 8]: 0.6137 per h and 1.0518 per h and 0.7318 per h and 0.9993 per h and 0.9107 per h and 0.8062 per h and 1.1035 per h
α (PD shape parameter) [3, 8]: 0.1929 and 0.1571 and 0.2644 and 0.1365 and 0.2010 and 0.1726 and 0.1199
CL GPC ([3]; GPC model, individual dogs 1-7): 14.7 mlmin^-1kg^-1 and 9.8 mlmin^-1kg^-1 and 11.5 mlmin^-1kg^-1 and 26.7 mlmin^-1kg^-1 and 19.4 mlmin^-1kg^-1 and 12.4 mlmin^-1kg^-1 and 11.4 mlmin^-1kg^-1
AUC for CGPC(t) as percent of dose eliminated, 72h-∞ ([3]; individual dogs 1-7): 8.7% and 28.4% and 15.6% and 20.3% and 33.0% and 17.4% and 24.1%
AUC for CGPC(t) as percent of dose eliminated, 1/3-72h ([3]; individual dogs 1-7): 53.1% and 58.7% and 63.7% and 60.5% and 50.8% and 62.0%
range of serum sample concentrations [4]: 9.78 to 19,100 ng/ml
urine recovery from IV metformin ([5]; 48 h, may have been inflated, ref Pentikäinen et al. [21]): 99.9%
urinary metformin recovery ([5]; ref Table 1 of [19]): 86%
urinary metformin recovery ([5]; ref Table II of [20]): 78.9%
